Measurements from US9289496B2, “Lipid dipeptide and gel” (Nissan Chemical Industries, Ltd., priority 2008, dated 2016).
“Also recorded” adds a separate entry of the source. Residues, ends and D or L forms follow the SMILES beside them.

How the values were obtained:
[1] = Gel sheet formation and stability of gel on water immersion; type: physicochemical; conditions: 72 hours
Method: Into a screw tube (Maruemu No. 3, manufactured by Maruemu Corp.), 3 mg of N-palmitoyl-Gly-His (TFA) prepared in Example 1 was placed, and 0.6 ml of Japanese Pharmacopoeia purified water (Kyoei Pharmaceutical Industries, Ltd.) was added into the screw tube so as to have a concentration of 0.5% (w/v). The whole was heated at 105° C. for 5 minutes, and then allowed to stand at room temperature to prepare a gel of 0.5% N-palmitoyl-Gly-His (TFA).
To the gel, 2 ml of Japanese Pharmacopoeia purified water (Kyoei Pharmaceutical Industries, Ltd.) was further added and sheet formation was observed from a wide view for 72 hours.
Into a screw tube (Maruemu No. 3, manufactured by Maruemu Corp.), 9.1 mg of N-palmitoyl-Gly-His.TFA salt prepared in Example 1 was placed, and 0.91 ml of Japanese Pharmacopoeia purified water (Kyoei Pharmaceutical Industries, Ltd.) and 0.91 ml of glycerin (Junsei Chemical Co., Ltd.) were added into the screw tube so as to have a concentration of 0.5% (w/v). The whole was heated at 105° C. for 5 minutes, and then allowed to stand at room temperature to prepare a gel of 0.5% N-palmitoyl-Gly-His.TFA salt in a glycerin solution.
Into the gel, 2 ml of Japanese Pharmacopoeia purified water (Kyoei Pharmaceutical Industries, Ltd.) was further added and sheet formation was observed from a wide view for 72 hours.
Into a screw tube (Maruemu No. 3, manufactured by Maruemu Corp.), 4.6 mg of N-palmitoyl-Gly-His.TFA salt prepared in Example 1 was placed, and 0.46 ml of glycerin was added into the screw tube so as to have a concentration of 1% (w/v). The whole was heated at 105° C. for 5 minutes, and then allowed to stand at room temperature to prepare a gel of 1% N-palmitoyl-Gly-His.TFA salt in glycerin.
(§1) Each of the 50.4 mg of N-palmitoyl-Gly-His.TFA salt prepared in Examples 1 to 3 was placed into a screw tube (Maruemu No. 7, manufactured by Maruemu Corp.). Into the screw tube, 1 ml of polyethylene glycol 400 (Wako Pure Chemical Industries, Ltd.), 1.5 ml of ethanol, and 8 ml of 70% glycerin (Junsei Chemical Co.) in water were added so as to have an N-palmitoyl-Gly-His TFA salt concentration of 0.5% (w/v). The mixture was heated with a dry bath incubator (manufactured by First Gene) (105° C., for 8 minutes), and then allowed to stand at room temperature to form a gel.
Into the gel, 20 ml of Japanese Pharmacopoeia purified water (Kyoei Pharmaceutical Industries, Ltd.) was further added and whether sheet formation occurred or not was observed from a wide view for 72 hours.
as §1, with “the 52.5” for “the 50.4”, “was added” for “was placed”, “tube, 0.5” for “tube, 1”, “Ltd.), 1” for “Ltd.), 1.5”, “an N-palmitoyl-Gly-His.TFA” for “an N-palmitoyl-Gly-His TFA”
(§2) Each of the 50.2 mg of palmitoyl-Gly-His.TFA salt prepared in Examples 1 to 3 was placed into a screw tube (Maruemu No. 7, manufactured by Maruemu Corp.) together with 104.7 mg of indomethacin and 220 mg of I-menthol. Into the screw tube, 0.5 ml of polyethylene glycol 400 (Wako Pure Chemical Industries, Ltd.), 1.5 ml of ethanol, 8 ml of 70% glycerin (Junsei Chemical Co., Ltd.) in water were added so as to have an N-palmitoyl-Gly-His.TFA salt concentration of 0.5% (w/v). […] The texture of the gel was smooth and cool.
After ascertainment of the gel formation, the gel was allowed to stand at room temperature for 45 days. Then, 20 ml of Japanese Pharmacopoeia purified water (Kyoei Pharmaceutical Industries, Ltd.) was added and sheet formation was observed from a wide view for 72 hours. […]

[2] = Evaluation of gelation of N-palmitoyl-Gly-His.TFA salt with various solutions; type: physicochemical
Method: Each N-palmitoyl-Gly-His trifluoroacetate synthesized in Examples 1 to 3 was placed in a screw tube (Maruemu No. 1, manufactured by Maruemu Corp.). Each of various solutions shown in Table 3 was added so as to have an N-palmitoyl-Gly-His.TFA salt (also called Pal-GH (TFA)) concentration of 0.5 or 1% (w/v). The mixture was heated at 100° C. with a constant temperature heat block (manufactured by Nippon Genetics Co., Ltd.), and then allowed at room temperature.

[3] = Gel formation in glycerin, polyethylene glycol 400 and ethanol medium; type: physicochemical; conditions: 8 ml 70% glycerin in water
Method: as §1
as §1, with “the 52.5” for “the 50.4”, “was added” for “was placed”, “tube, 0.5” for “tube, 1”, “Ltd.), 1” for “Ltd.), 1.5”, “an N-palmitoyl-Gly-His.TFA” for “an N-palmitoyl-Gly-His TFA”
as §2

[4] = Evaluation of gelation of lipid peptides with phosphate buffer; type: physicochemical; conditions: for Gel formation: acidic region (pH=2.6)
Method: Each of the lipid peptides synthesized in Examples 3 to 10 and Example 14 was placed in a sample tube. Each of three phosphate buffers (PBS) (pH=2.6, 7.4, or 10) was added so that a solution would have a lipid peptide concentration of 0.25 or 0.5% (w/v) (conditions A to F). Then, the mixture was heated at 90° C. or more to dissolve the lipid peptide, and then allowed to cool.

[5] = Evaluation of gelation of lipid peptides with pure water; type: physicochemical
Method: Each of the lipid peptides synthesized in Examples 1, 6, 7, 8, and 10 was placed in a sample tube. Pure water (without metals and ions) was added so that a solution would have a lipid peptide concentration of 0.25 or 0.5% (w/v) (w means mass (g), and v means volume (mL)). The mixture was heated at 90° C. or more to dissolve the lipid peptide, and then allowed to cool.

[6] = cited from earlier work
[7] = Usable mediums: solubility and gel formation, conventional art vs palmitoyl-Gly-His; type: physicochemical

In the case of CCCCCCCCCCCCCCCC(=O)NCC(=O)N[C@@H](Cc1c[nH]cn1)C(=O)O.O=C(O)C(F)(F)F [Example 1, N-palmitoyl-Gly-His.TFA salt] (HELM PEPTIDE1{[CCCCCCCCCCCCCCCC(=O)[*:2]].G.H}$$$$V2.0), the “Gel behaviour on immersion in purified water, sheet formation” value (shortened to “Gel behaviour on immersion”) ([1]; 0.5% (w/v) gel in 0.5 ml polyethylene glycol 400, 1 ml ethanol, 8 ml 70% glycerin, 20 ml water added) is reported as “not dissolved during water immersion and the formation of a sheet-shaped gel was observed”, the “Gel behaviour on immersion” value ([1]; 0.5% (w/v) gel in 1 ml polyethylene glycol 400, 1.5 ml ethanol, 8 ml 70% glycerin, 20 ml water added) is reported as “not dissolved during water immersion and the formation of a sheet-shaped gel was observed” and the “Gel behaviour on immersion” value ([1]; 0.5% (w/v) gel in glycerin solution (0.91 ml water + 0.91 ml glycerin), 2 ml water added) is reported as “not dissolved during water immersion and the formation of a sheet-shaped gel was observed”. For the same compound, the “Gel behaviour on immersion” value ([1]; 0.5% (w/v) gel in purified water, 2 ml water added) was “not dissolved during water immersion and the formation of a sheet-shaped gel was observed; also recorded: did not dissolve during water immersion and the formation of a sheet-shaped gel was observed”, the “Gel behaviour on immersion” value ([1]; 0.5% (w/v) gel including indomethacin and l-menthol, after 45 days at room temperature, 20 ml water added) was “not dissolved during water immersion and the formation of a sheet-shaped gel was observed” and the “Gel behaviour on immersion” value ([1]; 1% (w/v) gel in glycerin, 2 ml water added) was “not dissolved during water immersion and the formation of a sheet-shaped gel was observed”. For the same compound, the Gel state ([2]; 50% 1,3-butanediol aqueous solution, 0.5% (w/v)) was “White gel”, the Gel state ([2]; 50% glycerin aqueous solution, 0.5% (w/v)) was “White gel” and the Gel state ([2]; 50% liquid paraffin aqueous solution, 0.5% (w/v)) was “White gel”. For the same compound, the Gel state ([2]; 50% polyethylene glycol 400 aqueous solution, 0.5% (w/v)) was “White gel”, the Gel state ([2]; 50% propylene glycol aqueous solution, 0.5% (w/v)) was “White gel” and the Gel state ([2]; 70% glycerin aqueous solution, 0.5% (w/v)) was “Transparent gel”. For the same compound, the Gel state ([2]; Glycerin, 1.0% (w/v)) was “Transparent gel”, the Gel state ([2]; Polyethylene glycol 400, 1.0% (w/v)) was “Transparent gel” and the Gel formation ([3]; 0.5% (w/v) with 104.7 mg indomethacin and 220 mg l-menthol, 0.5 ml polyethylene glycol 400, 1.5 ml ethanol) was “pale yellow gel”. The Gel formation ([3]; 0.5% (w/v), 0.5 ml polyethylene glycol 400, 1 ml ethanol) was “form a gel”, the Gel formation ([3]; 0.5% (w/v), 1 ml polyethylene glycol 400, 1.5 ml ethanol) was “form a gel” and the “Gel formation” value ([4]; concentration 0.25%) was “formed gels”. The “Gel formation” value ([4]; concentration 0.5%) was “formed gels”, the Gelation ([4]; condition A: phosphate buffer pH = 2.6, 0.5% (w/v)) was “◯” and the Gelation ([4]; condition B: phosphate buffer pH = 2.6, 0.25% (w/v)) was “◯”. The Gelation ([4]; condition C: phosphate buffer pH-7.4, 0.5% (w/v)) was “◯”, the Gelation ([4]; condition D: phosphate buffer pH-7.4, 0.25% (w/v)) was “◯” and the Gelation ([4]; condition E: phosphate buffer pH = 10, 0.5% (w/v)) was “◯”. The Gelation ([5]; lipid peptide 0.25% (w/v)) was “◯” and the Gelation ([5]; lipid peptide 0.50% (w/v)) was “◯”.
In the case of CCCCCCCCCCCCCCCC(=O)NCC(=O)NCC(=O)NCC(=O)N[C@@H](Cc1c[nH]cn1)C(=O)O [palmitoyl-Gly-Gly-Gly-His] (HELM PEPTIDE1{[CCCCCCCCCCCCCCCC(=O)[*:2]].G.G.G.H}$$$$V2.0), the lowest gelation concentration ([6]; Non-patent Document 10) is listed as 0.03 wt %, the Solubility in medium ([7]; 50 mM acetate buffer with pH 5, even when heated) is listed as “insoluble” and the Solubility in medium ([7]; 50 mM citrate buffer with pH 5, even when heated) is listed as “insoluble”. The Gel formation ([7]; ethanol/water mixed solvent having an ethanol concentration of 80% or more) was “does not form a gel”.
In the case of CCCCCCCCCCCCCCCC(=O)NCC(=O)NCC(=O)N[C@@H](Cc1c[nH]cn1)C(=O)O [palmitoyl-Gly-Gly-His] (HELM PEPTIDE1{[CCCCCCCCCCCCCCCC(=O)[*:2]].G.G.H}$$$$V2.0), the gelation properties ([6]; background art) is given as “has gelation properties”.
